In one assay the target is GluK1 (Homo sapiens, UniProt P39086). The assay can be described thus: Ca2+ fluorescence assay, antagonism of L-glutamate. In kind it is cell-based.
The target in the next assay is GluK3 (Homo sapiens, UniProt Q13003). The assay can be described thus: whole-cell voltage clamp, % inhibition at […] of […] glutamate currents. The format is cell-based. The settings on record: read-out: % inhibition at 30 μM.
Chain of GluK3 (Q13003 32-919): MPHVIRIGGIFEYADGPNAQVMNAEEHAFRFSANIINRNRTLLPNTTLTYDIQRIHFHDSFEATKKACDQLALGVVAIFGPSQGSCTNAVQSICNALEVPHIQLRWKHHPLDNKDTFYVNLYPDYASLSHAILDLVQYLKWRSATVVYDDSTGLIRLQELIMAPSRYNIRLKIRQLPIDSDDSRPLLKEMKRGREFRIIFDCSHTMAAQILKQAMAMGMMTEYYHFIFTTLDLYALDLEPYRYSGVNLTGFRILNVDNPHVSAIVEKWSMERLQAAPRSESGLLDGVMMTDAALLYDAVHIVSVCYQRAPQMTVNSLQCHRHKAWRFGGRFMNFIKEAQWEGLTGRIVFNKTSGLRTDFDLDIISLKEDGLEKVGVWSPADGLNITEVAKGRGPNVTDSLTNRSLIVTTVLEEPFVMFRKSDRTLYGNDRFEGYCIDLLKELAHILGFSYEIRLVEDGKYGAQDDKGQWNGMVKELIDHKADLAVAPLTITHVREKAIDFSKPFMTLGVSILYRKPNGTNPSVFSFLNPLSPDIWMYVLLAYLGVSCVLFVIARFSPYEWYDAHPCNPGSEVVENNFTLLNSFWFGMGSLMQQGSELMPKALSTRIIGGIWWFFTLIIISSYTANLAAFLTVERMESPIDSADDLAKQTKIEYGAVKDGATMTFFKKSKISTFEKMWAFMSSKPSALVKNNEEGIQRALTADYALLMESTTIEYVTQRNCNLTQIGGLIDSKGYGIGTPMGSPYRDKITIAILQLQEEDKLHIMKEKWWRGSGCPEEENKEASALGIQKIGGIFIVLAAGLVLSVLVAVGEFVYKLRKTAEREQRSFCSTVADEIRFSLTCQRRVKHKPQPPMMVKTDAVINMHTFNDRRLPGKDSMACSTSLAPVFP

Chain of GluK1 (P39086 31-918): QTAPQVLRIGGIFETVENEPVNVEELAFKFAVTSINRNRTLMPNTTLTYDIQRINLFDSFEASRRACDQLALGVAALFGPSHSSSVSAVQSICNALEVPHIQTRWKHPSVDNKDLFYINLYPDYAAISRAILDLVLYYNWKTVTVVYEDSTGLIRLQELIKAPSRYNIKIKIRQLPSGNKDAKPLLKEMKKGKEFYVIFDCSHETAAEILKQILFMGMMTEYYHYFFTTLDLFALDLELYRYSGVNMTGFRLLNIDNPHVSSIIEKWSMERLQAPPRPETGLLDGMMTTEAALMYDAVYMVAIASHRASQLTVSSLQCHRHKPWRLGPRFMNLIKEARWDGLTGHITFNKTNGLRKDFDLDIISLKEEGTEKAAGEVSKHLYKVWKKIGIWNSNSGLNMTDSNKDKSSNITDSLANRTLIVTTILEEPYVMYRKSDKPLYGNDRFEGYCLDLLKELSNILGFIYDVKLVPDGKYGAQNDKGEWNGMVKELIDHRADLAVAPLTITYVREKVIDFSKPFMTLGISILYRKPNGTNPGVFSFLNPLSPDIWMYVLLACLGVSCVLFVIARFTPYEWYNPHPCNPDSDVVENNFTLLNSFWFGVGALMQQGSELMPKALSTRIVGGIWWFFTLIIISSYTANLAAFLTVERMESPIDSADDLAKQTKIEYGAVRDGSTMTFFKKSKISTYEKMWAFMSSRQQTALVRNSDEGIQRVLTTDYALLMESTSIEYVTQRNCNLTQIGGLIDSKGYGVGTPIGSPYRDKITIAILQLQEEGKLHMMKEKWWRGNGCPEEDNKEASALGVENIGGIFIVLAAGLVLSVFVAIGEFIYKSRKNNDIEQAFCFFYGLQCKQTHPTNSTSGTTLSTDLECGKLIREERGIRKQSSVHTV

One may read the Kb as the affinity of an antagonist, worked out from how it opposes an agonist. Usually inhibition stands for the drop in the measured response relative to a control, in per cent. With `Cc1cn(C[C@H](N)C(=O)O)c(=O)n(Cc2cc(-c3ccccc3)sc2C(=O)O)c1=O` [ACET, (S)-1-(2-amino-2-carboxyethyl)-3-(2-carboxy-5-phenylthiophene-3-yl-methyl)-5-methylpyrimidine-2,4-dione], the Kb on GluK1 turned out to be 1.4 ± 0.2 nM. Also, the inhibition at 30 µM on GluK3 is 30 ± 5%.
At GluK1, UBP304 yielded an antagonist dissociation constant (Kb) of 110 ± 30 nM.

The values above are taken from paper PMC2637447 (Neuropharmacology, 2008).
